How the values were obtained:
pancreatic progenitors = assay: Beta cell differentiation from human pluripotent stem cells, flow cytometry of C-peptide and NKX6.1 positive cells; format: cell-based; conditions: for percentage / number of C-peptide positive cells compared to control: end of differentiation on day 27, compounds added day 15 to day 27; for effectiveness to induce differentiation of pancreatic progenitors to C-peptide positive cells, comparison within panel: day 27
Protocol: Beta cells differentiated from human pluripotent stem cell lines as described in Example 2 (Sui et al., 2018b). Indicated compounds that function as cell cycle inhibitors were added individually from day 15 to day 27 with concentration listed below:
The DNA replication inhibitors used in this study: 0.1 μM, 0.5 μM and 1 μM Aphidicolin (A0781, Sigma-Aldrich); 2.5 μM Cisplatin (232120, EMD Millipore); 100 μM Ciprofloxacin (S2027, Selleck Chemicals); 10 μM Pyridostatin (S7444, Selleck Chemicals); 10 μM E2F Inhibitor (324461, EMD Millipore); 0.05 μM A485 (6387, Tocris); 2 μM RL5a (SML2187, Sigma-Aldrich); and 2 μM Etoposide (E55500, Research Products International). Indicated compounds were added individually from day 15 to day 27 with indicated concentration.
(§1) The beta cell clusters were dissociated using TrypLE™ Express into single cells. Cells were fixed with 4% PFA for 10 min and followed by permeabilization at −20° C. with cold methanol for 10 min. Primary antibodies were added at a dilution of 1:100 in autoMACs Rinsing Solution (Cat. No. 130-091-222, Miltenyi Biotec) containing 0.5% BSA at 4° C. for 1 hour. Secondary antibodies were added at a dilution of 1:500 at room temperature for 1 hour. The cells were filtered with BD Falcon 12×75 mm tube with cell strainer cap (Cat. No. 352235, BD) and subsequently analyzed by flow cytometer. Data were analyzed using Flowjo software. Negative controls were performed by only adding secondary antibodies.
Aphidicolin (APH), a DNA polymerase inhibitor, was used to inhibit DNA replication (Koundrioukoff et al., 2013). […] The insulin expressing cells were evenly distributed in the islet-like clusters with high percentage indicated by the expression of GFP, whereas some parts of the clusters in control remained GFP negative (FIG. 1D).

[1] = tested on: stem cell derived beta cells; assay: Stability of beta cell identity in long-term culture after removal of compound at day 27; format: cell-based, human; conditions: additional 30 days of culture (day 60)
Protocol: as §1
With APH, a high proportion of cells in the islet-like clusters were positive for C-peptide and NKX6.1, a transcription factor for maintaining the beta cell identity and functional maturation (Schaffer et al., 2013). […] Beta cells were cultured for additional 7 days until about day 34 and 30 days until about day 60 upon removal of these compounds at day 27. […] In contrast, in APH treated cells, there was no decrease in C-peptide or NKX6.1 on day 34 (FIG. 5A). […] After further culturing of the cells for extra 30 days, very few of cells in control group remained GFP expression and were positive for C-peptide.
The ability of other DNA replication inhibitors to stabilize the beta cell identity was investigated. The expressions of GFP were maintained after releasing cells from these inhibitors for 7 days until day 34. With additional 30 days of culture, the expressions of GFP were reduced in all conditions at certain levels, but the cells treated with Cis and Eto expressed higher GFP than the cells treated with APH compared to the other conditions (FIG. 5E, FIG. 5F).

Compound | percentage / number of C-peptide positive cells compared to control (pancreatic progenitors) | effectiveness to induce differentiation of pancreatic progenitors to C-peptide positive cells, comparison within panel (pancreatic progenitors) | expressions of GFP (insulin) [1]
CNC(=O)Nc1ccc2c(c1)CC[C@@]21OC(=O)N(CC(=O)N(Cc2ccc(F)cc2)[C@@H](C)C(F)(F)F)C1=O [P300 inhibitor] | no significant increase | – | –
N.N.[Cl][Pt][Cl] [cisplatin, Cisplatin] | – | most effective | higher GFP
RL5a | failed to increase | less effective | –
O=C1NC(=O)c2c1c1c3ccccc3[nH]c1c1[nH]c3cc(Br)ccc3c21 [CDK4] | – | less effective | –
COc1cc([C@@H]2c3cc4c(cc3[C@@H](O[C@@H]3O[C@@H]5CO[C@@H](C)O[C@H]5[C@H](O)[C@H]3O)[C@H]3COC(=O)[C@H]23)OCO4)cc(OC)c1O [Etoposide] | – | most effective | higher GFP

Source: US12605407B2, “Methods to induce terminal differentiation in stem cells by interfering with DNA replication, methods of inducing pancreatic differentiation, and differentiated cells obtained thereof” (priority 2018, dated 2026)
